{
  "source": "ChEMBL document CHEMBL5291721",
  "about": "“A preclinical secondary pharmacology resource illuminates target-adverse drug reaction associations of marketed drugs” (Nat Commun, 2023); also: assay procedure not described here",
  "key": {"[1]": {"target": "Sodium-dependent dopamine transporter (Homo sapiens, UniProt Q01959)", "sequence (Q01959 whole entry)": "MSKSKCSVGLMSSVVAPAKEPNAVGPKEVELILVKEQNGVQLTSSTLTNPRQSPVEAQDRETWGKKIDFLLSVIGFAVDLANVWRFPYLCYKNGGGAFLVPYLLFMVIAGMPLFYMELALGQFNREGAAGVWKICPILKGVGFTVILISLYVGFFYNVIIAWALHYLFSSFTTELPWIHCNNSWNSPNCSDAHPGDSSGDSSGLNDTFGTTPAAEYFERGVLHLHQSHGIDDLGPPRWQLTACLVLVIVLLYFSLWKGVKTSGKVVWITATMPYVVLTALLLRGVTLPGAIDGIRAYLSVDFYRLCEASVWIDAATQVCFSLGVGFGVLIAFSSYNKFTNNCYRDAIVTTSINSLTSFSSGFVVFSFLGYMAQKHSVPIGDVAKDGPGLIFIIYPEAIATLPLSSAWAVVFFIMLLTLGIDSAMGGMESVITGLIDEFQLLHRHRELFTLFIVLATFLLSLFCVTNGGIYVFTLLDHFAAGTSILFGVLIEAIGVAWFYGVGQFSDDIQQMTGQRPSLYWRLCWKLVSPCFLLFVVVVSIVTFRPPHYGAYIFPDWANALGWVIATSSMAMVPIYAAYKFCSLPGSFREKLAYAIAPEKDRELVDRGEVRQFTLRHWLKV"}, "[2]": {"target": "T1, Androgen receptor (Homo sapiens, UniProt P10275)", "T1 sequence (P10275 whole entry)": "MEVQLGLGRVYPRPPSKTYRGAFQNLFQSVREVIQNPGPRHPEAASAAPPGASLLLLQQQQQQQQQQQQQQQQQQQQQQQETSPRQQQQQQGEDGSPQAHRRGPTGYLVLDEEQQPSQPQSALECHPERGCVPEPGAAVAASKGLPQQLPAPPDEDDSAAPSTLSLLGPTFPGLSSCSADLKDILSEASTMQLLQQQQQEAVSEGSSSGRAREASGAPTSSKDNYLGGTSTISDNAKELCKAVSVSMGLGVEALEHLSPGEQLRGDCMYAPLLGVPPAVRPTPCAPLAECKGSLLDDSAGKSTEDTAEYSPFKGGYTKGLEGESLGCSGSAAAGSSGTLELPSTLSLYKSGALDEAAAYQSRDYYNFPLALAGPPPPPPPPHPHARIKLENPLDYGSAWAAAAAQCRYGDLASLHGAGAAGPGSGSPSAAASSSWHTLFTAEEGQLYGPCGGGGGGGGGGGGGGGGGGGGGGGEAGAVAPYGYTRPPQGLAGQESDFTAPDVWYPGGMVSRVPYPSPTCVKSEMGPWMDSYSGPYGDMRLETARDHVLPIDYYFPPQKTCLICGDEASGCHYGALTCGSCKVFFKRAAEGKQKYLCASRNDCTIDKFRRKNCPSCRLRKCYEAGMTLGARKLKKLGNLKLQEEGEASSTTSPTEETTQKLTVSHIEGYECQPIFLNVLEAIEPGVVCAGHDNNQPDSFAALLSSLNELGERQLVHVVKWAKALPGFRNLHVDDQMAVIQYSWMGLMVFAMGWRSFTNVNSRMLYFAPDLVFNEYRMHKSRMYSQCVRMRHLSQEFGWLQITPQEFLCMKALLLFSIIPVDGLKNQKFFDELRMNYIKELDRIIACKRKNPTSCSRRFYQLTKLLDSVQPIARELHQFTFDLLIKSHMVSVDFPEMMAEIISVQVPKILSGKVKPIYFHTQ"}, "[3]": {"target": "Vascular endothelial growth factor receptor 2 (Homo sapiens, UniProt P35968)", "sequence (P35968 whole entry)": "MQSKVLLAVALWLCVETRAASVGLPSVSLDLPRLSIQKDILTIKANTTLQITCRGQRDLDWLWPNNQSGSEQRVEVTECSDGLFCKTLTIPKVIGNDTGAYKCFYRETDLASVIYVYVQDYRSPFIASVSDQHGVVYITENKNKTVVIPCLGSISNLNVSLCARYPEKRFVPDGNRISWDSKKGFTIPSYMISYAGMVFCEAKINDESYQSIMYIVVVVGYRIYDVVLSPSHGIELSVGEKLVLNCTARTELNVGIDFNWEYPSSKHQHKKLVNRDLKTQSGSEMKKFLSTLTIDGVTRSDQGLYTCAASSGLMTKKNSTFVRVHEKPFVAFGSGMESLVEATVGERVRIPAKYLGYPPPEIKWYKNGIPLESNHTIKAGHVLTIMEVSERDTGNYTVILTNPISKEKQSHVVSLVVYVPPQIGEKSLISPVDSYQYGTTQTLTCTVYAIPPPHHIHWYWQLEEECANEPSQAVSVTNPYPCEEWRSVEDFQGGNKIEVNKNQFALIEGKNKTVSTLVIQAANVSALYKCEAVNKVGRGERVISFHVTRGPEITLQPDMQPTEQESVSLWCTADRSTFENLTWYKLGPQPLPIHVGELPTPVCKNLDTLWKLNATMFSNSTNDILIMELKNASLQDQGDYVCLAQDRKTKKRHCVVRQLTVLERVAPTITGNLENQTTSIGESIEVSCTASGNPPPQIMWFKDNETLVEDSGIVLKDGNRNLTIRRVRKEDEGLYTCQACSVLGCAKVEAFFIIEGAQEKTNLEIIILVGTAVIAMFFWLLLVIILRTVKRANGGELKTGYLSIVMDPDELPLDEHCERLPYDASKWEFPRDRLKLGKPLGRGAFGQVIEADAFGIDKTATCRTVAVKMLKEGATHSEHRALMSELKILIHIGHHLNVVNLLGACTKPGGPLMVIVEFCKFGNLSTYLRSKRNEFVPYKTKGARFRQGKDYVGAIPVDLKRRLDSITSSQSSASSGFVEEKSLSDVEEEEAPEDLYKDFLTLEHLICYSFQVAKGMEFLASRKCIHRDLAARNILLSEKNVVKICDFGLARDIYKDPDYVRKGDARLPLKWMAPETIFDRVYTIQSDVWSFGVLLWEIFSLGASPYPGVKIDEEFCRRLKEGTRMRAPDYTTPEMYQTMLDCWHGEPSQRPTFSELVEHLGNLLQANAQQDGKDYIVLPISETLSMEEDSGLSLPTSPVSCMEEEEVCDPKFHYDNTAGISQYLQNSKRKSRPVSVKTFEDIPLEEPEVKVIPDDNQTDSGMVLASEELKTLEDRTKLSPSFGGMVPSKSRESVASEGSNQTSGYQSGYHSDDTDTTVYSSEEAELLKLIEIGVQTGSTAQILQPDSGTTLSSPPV", "type": "functional"}, "[4]": {"target": "T2, Prostaglandin G/H synthase 1 (Rattus norvegicus, UniProt Q63921)", "T2 sequence (Q63921 whole entry)": "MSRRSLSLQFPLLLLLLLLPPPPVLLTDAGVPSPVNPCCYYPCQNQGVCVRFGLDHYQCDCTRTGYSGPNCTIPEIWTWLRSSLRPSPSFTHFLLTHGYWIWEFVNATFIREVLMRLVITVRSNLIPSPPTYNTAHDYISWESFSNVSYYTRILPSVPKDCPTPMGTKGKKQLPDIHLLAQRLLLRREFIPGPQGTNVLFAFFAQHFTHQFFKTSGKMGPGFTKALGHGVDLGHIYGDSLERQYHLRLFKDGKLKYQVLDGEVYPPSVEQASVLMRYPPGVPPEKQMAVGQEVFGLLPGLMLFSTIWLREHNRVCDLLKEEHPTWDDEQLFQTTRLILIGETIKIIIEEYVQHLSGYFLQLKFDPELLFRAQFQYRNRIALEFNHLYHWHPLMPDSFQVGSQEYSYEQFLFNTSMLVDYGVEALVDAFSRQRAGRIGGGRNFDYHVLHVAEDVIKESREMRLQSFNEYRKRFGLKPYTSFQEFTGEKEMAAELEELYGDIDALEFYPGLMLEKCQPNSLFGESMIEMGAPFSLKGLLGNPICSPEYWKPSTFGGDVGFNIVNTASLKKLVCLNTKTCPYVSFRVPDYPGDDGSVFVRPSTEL", "type": "functional"}, "[5]": {"target": "5-hydroxytryptamine receptor 2B (Homo sapiens, UniProt P41595)", "sequence (P41595 whole entry)": "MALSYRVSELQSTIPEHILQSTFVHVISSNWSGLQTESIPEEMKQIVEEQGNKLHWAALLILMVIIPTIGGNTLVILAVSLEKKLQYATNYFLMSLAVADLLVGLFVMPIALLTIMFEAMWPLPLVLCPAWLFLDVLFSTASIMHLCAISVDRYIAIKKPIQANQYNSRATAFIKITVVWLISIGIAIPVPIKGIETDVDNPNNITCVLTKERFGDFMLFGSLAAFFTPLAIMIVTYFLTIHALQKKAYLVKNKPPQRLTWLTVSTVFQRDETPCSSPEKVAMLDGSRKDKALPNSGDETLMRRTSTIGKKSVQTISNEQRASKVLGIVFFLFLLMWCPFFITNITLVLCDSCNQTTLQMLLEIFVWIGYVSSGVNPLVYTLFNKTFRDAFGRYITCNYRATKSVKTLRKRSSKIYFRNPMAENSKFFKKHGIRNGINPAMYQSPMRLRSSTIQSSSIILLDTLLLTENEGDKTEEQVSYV", "type": "functional, cell-based"}, "[6]": {"target": "3',5'-cyclic-AMP phosphodiesterase 4D (Homo sapiens, UniProt Q08499)", "sequence (Q08499 whole entry)": "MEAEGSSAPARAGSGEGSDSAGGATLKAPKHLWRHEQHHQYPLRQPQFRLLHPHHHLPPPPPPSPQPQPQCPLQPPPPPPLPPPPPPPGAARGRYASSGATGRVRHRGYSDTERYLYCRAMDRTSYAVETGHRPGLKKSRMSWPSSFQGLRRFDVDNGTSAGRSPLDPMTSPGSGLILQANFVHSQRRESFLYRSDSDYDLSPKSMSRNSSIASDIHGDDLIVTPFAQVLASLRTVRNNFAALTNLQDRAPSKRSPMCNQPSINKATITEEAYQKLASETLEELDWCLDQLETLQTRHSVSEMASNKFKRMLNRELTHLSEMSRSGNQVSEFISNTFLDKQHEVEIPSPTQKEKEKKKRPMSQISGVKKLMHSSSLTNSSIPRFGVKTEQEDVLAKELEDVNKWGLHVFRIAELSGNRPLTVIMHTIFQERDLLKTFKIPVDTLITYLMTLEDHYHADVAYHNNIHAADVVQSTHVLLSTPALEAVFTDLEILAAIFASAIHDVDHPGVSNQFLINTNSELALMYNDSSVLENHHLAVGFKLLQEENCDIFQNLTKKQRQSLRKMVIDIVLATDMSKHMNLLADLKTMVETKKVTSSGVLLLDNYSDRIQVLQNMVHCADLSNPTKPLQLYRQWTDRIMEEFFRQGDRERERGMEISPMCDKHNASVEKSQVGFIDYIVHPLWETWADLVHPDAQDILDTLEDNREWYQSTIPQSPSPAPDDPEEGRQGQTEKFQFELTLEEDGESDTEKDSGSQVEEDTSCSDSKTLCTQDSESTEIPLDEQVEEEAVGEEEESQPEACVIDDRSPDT", "type": "functional"}},
  "data": [
    {"smiles": "CS(=O)(=O)Nc1cc2occ(NC=O)c(=O)c2cc1Oc1ccccc1", "note": "[IGURATIMOD]", "values": [
      {"measurement": "AC50", "setting": "[1]", "value": "> 30", "unit": "µM"},
      {"measurement": "AC50", "setting": "[2]", "value": "> 30", "unit": "µM"},
      {"measurement": "AC50", "setting": "[3]", "value": "> 10", "unit": "µM"},
      {"measurement": "AC50", "setting": "[4]", "value": "> 30", "unit": "µM"},
      {"measurement": "AC50", "setting": "[5]", "value": "> 30", "unit": "µM"},
      {"measurement": "AC50", "setting": "[6]", "value": 9.8, "unit": "µM"}
    ]},
    {"smiles": "COc1ccc(CCC(C)NCC(O)c2ccc(O)c([S+](C)[O-])c2)cc1", "note": "(stereo not given) [SULFINALOL]", "values": [
      {"measurement": "AC50", "setting": "[2]", "value": "> 30", "unit": "µM"},
      {"measurement": "AC50", "setting": "[3]", "value": "> 30", "unit": "µM"}
    ]},
    {"smiles": "C[C@@H]1O[C@@H](OC[C@H]2O[C@@H](Oc3c(-c4ccc(OCCO)c(OCCO)c4)oc4cc(OCCO)cc(O)c4c3=O)[C@H](O)[C@@H](O)[C@@H]2O)[C@H](O)[C@H](O)[C@H]1O", "note": "[TROXERUTIN]", "values": [
      {"measurement": "AC50", "setting": "[2]", "value": "> 30", "unit": "µM"},
      {"measurement": "AC50", "setting": "[3]", "value": "> 30", "unit": "µM"}
    ]}
  ]
}
